Assay results taken from patent publication US20220339135A1, “COMPOSITIONS AND METHODS FOR MODULATING AN INFLAMMATORY RESPONSE” (Enzychem Lifesciences Corporation, priority 2019, published 2022).
“Also recorded” adds a separate entry of the source.

Tested on: Pseudomonas aeruginosa strain K (PAK) in bone marrow-derived macrophages (BMDMs)
Assay: In vitro phagocytosis and bacterial killing assay, BMDMs
Format: cell-based
Conditions: for phagocytic activity of BMDMs (intracellular PAK CFU, confocal): 100 μg/ml pretreated 1 h, PAK MOI 50 for 1 h
Description: For immunofluorescence-based measurement of phagocytosis and clearance, BMDMs were grown on glass coverslips in 24-well plates. The cells were infected with PAK (MOI, 50) for different time intervals and then were treated with 10 μg/ml gentamycin for 30 minutes to remove extracellular PAK attached to the cell surface. The infected cells were washed with ice-cold PBS several times, followed by fixing for 10 minutes at room temperature in methanol or 10% paraformaldehyde. The cells were stained with anti-Pseudomonas antibody (Abcam) and then were incubated with goat anti-rabbit IgG secondary antibody conjugated with Alexa Fluor 488. Slides were mounted using the mounting medium ProLong™ Gold antifade reagent with the DNA-binding blue dye DAPI (Thermo Scientific™) and were imaged with a confocal microscope (Zeiss LSM 800, Germany).
For CFU counting-based phagocytosis and bacterial killing assay, PAK was cultured at 37° C. overnight with continuous shaking and was resuspended in PBS. The BMDMs or THP-1 cells were incubated with PAK (MOI, 50) for different time intervals at 37° C. The cells were further cultured in the medium containing 10 μg/ml gentamycin for 30 minutes and then were lysed by 0.5% SDS. The diluted aliquots were spread on LB agar plates, and CFU was counted after incubation of the plates overnight at 37° C.
To evaluate whether PLAG accelerates phagocytosis of PAK by macrophages in vitro systems, bone marrow-derived macrophages (BMDMs) were pretreated with PLAG, and then infected with PAK (MOI, 50) for different lengths of time. Gentamycin ([…]) was treated to the cells for 30 minutes to remove extracellular bacteria. Immunofluorescence micrographs of BMDMs incubated with PAK confirmed that PLAG accelerated not only engulfment of bacteria, but also clearance of bacteria (FIG. 5A). […] PAK is recognized by toll-like receptors 4 and 5 and PAK is phagocytosed by co-cultured macrophage at 2 hrs and sustained for 4 hrs. In the PLAG treated cells, phagocytosis of PAK starts at 30 min and maximized at 1 hr and the invading PAK is cleared at 2 hrs.
For the CFU counting-based phagocytosis assay, PAK was cultured at 37° C. overnight with continuous shaking and then resuspended in PBS. BMDMs were pretreated with 100 μg/ml of PLAG or PLH for 1 hour. The cells were infected with PAK (multiplicity of infection [MOI], 50) for 1 h, and then treated with 10 μg/ml gentamycin for 30 minutes to remove extracellular PAK attached to the cell surface. Then, the cells were lysed with 0.5% SDS and serially diluted in PBS to spread on LB agar plates. CFU counts were performed after overnight incubation at 37° C.
For the immunofluorescence-based measurement of phagocytosis and clearance, BMDMs were grown on glass coverslips in 24-well plates. The cells were infected with PAK (MOI, 50) for 1 hour and then treated with 10 μg/ml gentamycin for 30 minutes to remove extracellular PAK attached to the cell surface. The infected cells were washed several times with ice-cold PBS and then fixed for 10 minutes at room temperature in methanol or 10% paraformaldehyde. The cells were then incubated with anti-Pseudomonas primary and Alexa Fluor 488-conjugated goat anti-rabbit IgG secondary antibodies. The coverslips were mounted on slides with ProLong Gold antifade reagent with DAPI (Thermo Fisher Scientific) and imaged with a confocal microscope (LSM 800; Zeiss, Germany). […]

[1] = PAK MOI 50, PLAG pretreated BMDMs

Compound: CCCCC/C=C\C/C=C\CCCCCCCC(=O)OC(COC(C)=O)COC(=O)CCCCCCCCCCCCCCC (racemic) [PLAG, 1-palmitoyl-2-linoleoyl-3-acetylglycerol]
- phagocytic activity of BMDMs (intracellular PAK CFU, confocal): most advanced phagocytosis; also recorded: most effectively enhanced
- invading PAK is cleared [1]: 2 h
- phagocytosis of PAK maximized [1]: 1 h
- phagocytosis of PAK starts [1]: 30 min

Compound: CCCCC/C=C\C/C=C\CCCCCCCC(=O)OC(CO)COC(=O)CCCCCCCCCCCCCCC (centres unmarked) [PLH, palmitic linoleic hydroxyl glycerol, reference compound]
- phagocytic activity of BMDMs (intracellular PAK CFU, confocal): little effect
